Series [1] is described as follows: Population PK model of total and unbound pamiparib plasma concentrations in glioblastoma patients (Monolix; bootstrap evaluation). The format is in vivo, human. Also noted: Ka_SD: unit not given here. The conditions noted are these: for fraction unbound: oral, 60 mg, read-out: θ4 (Fu); for IIV of CL/F / IIV of Ka / IIV of V/F: (% RSE). As for the experimental part: The total and unbound pamiparib plasma concentration data used in the population PK analysis were obtained from a phase 0/II study (ClinicalTrials.gov ID: NCT04614909), which enrolled 41 patients with newly diagnosed or recurrent glioblastoma. The protocols were approved by the Institutional Review Board of the Barrow Neurological Institute. Written informed consent was obtained from all participants.
The patients received oral pamiparib (60 mg twice daily) for three days before undergoing surgical tumor resection. Blood samples were collected at predose and at 0.5, 1, 2, 4, 7, and 24 h following the 9th oral dose. Plasma was separated from whole blood by centrifugation at 1000× g and 4 °C for 10 min and then stored at −80 °C until analysis. The total and unbound pamiparib concentrations in plasma samples were quantified using a validated liquid chromatography coupled with tandem mass spectrometry (LC-MS/MS) method.
The population PK model was developed in two steps: (1) basic (structural) model development and (2) covariate model development. All analyses were performed using the nonlinear mixed-effects modeling program MONOLIX version 2024R1 (Lixoft, Antony, France).
The structural model was developed to simultaneously characterize total and unbound pamiparib plasma concentration–time profiles following an oral administration of 9 doses (60 mg, twice daily) in individual glioblastoma patients. A one-compartment model with first-order absorption (without lag time) and first-order elimination was selected to describe the multiple-dose plasma concentration–time data. The primary PK parameters included apparent oral clearance (CL/F), apparent volume of distribution (V/F), absorption rate constant (Ka), and fraction of unbound drug in plasma (Fu). The relationship between total (Cp) and unbound (Cu) drug concentrations was incorporated into the model using the equation Cu = Cp × Fu. All concentration data were log-transformed to stabilize variance and improve model fitting. Population mean PK parameters, interindividual variability, and residual error were assessed in the population PK model. Interindividual variability was modeled using an exponential function, assuming log-normal distribution for all PK parameters.
Various residual error models, including constant, proportional, and combined error models, were evaluated. The combined model, incorporating both proportional and additive error components, was selected as the optimal error model (Equation (1)).(1) yi,j=fti,j,ψi+g(ti,j,ψi,ξ)εi,j Here, ψi is the parameter vector of the structural model f for individual i , and the residual error model is defined by the function g that depends on an additional parameter vector ξ . The residual errors εi,j are standardized Gaussian random variables with a mean of 0 and a standard deviation of 1. In this analysis, the combined error model was defined as g=a+bf^c , where the function g consists of a constant term, a, and a term proportional to the structural model f , with b as the proportionality constant. The parameter vector ξ includes a and b, while c is fixed at 1 by default.
Population mean PK parameters were estimated using the Stochastic Approximation Expectation–Maximization (SAEM) algorithm, a robust method for handling complex nonlinear mixed-effects models. Individual patients’ PK parameter estimates were obtained through post hoc Bayesian estimation, utilizing the conditional distributions derived from the Markov Chain Monte Carlo (MCMC) procedure.
The covariate model was developed using a stepwise approach to systematically identify and incorporate significant covariate effects. Initial screening for potential covariates was conducted using generalized additive modeling (GAM) with R version 4.4.1. The candidate covariates, listed in Table 1, were evaluated based on their relationship with Bayesian-estimated individual pharmacokinetic (PK) parameters from the structural model, including CL/F, V/F, Ka, and Fu. […]

The subject of series [2] is ABCG2. Set-up: method as in PMID 32652442, PMID 39575553. The conditions noted are these: cited from earlier work.
Series [3] deals with P-glycoprotein (P-gp). Also noted: method as in PMID 32652442, PMID 39575553. The conditions noted are these: cited from earlier work.
Series [4] has as its system PARP. Also noted: method as in PMID 33264017. To be noted: used as denominator of target engagement ratio; read-out: IC50 for PARP inhibition; cited from earlier work.
On the set-up of series [5]: method as in PMID 33876576. The conditions noted are these: cited from earlier work.
For series [6] the following is noted: cited from earlier work.
For series [7] the following is noted: human liver microsomes; cited from earlier work.
Series [8] deals with PARP. Also noted: method as in PMID 23118055. The conditions noted are these: cited from earlier work.
For series [9] the following is noted: cited from earlier work. This is another data set of the same source.
Series [10] relates to SCLC PDX models. Set-up: method as in PMID 29330466. To be noted: imaging, cited from earlier work.
The mark [11] stands for this setting: total pamiparib, base model, 60 mg twice daily oral.
Setting [12] is: total pamiparib, base model, population mean (% RSE).
Where [13] appears, read: total pamiparib, bootstrap mean.
Where [14] appears, read: total pamiparib, final covariate model.
Where [15] appears, read: total pamiparib, final covariate model, population mean.
Where [16] appears, read: total pamiparib, final covariate model, population mean (% RSE in Table 2).
[17] abbreviates: unbound pamiparib, base model, population mean (% RSE).
Where [18] appears, read: unbound pamiparib, bootstrap mean.
Where [19] appears, read: unbound pamiparib, final covariate model.
The mark [20] stands for this setting: unbound pamiparib, final covariate model, population mean.
[21] abbreviates: unbound pamiparib, final covariate model, population mean (% RSE in Table 2).

“And” between values parts separate entries of the source, which are not always exact repeats. Identical values can stand only once. Like-named read-outs stand apart in the source and are kept apart here. Marks after values point to notes of the source that are not given here.

`C[C@]12CCCN1CC1=NNC(=O)c3cc(F)cc4[nH]c2c1c34` [pamiparib]: the fraction unbound in series [1] (human, plasma, total pamiparib, base model, population mean (% RSE)) came out at 0.042; in [1] (human, plasma, total pamiparib, bootstrap mean) it was 0.041; in series [1] (human, plasma, total pamiparib, final covariate model, population mean (% RSE in Table 2)), 0.041; in series [1] (human, plasma, unbound pamiparib, base model, population mean (% RSE)), 0.042; in series [1] (human, plasma, unbound pamiparib, bootstrap mean), 0.041; in series [1] (human, plasma, unbound pamiparib, final covariate model, population mean (% RSE in Table 2)), 0.042. In addition, the half-life in series [1] (human, plasma, glioblastoma patients, 60 mg twice daily oral, read-out: population mean elimination half-life (T1/2) (converted)) was roughly 12 h. Further, the TV_CL/F in series [1] (setting [11]) was 2.73 L/h; in series [1] (total pamiparib, final covariate model, at median age 60) it was 2.59 L/h and 2.59 ^‡ L/h; in series [1] (unbound pamiparib, base model), 65.0 L/h; in [1] (unbound pamiparib, final covariate model, at median age 60), 62.5 ^‡ L/h. Moreover, the TV_V/F in [1] (setting [11]) is 44 L; in [1] (total pamiparib, final covariate model, at median PCC 111.5), 44 L and 44 ^† L; in [1] (unbound pamiparib, base model), 1017 L; in series [1] (unbound pamiparib, final covariate model, at median PCC 111.5), 1060 ^† L. The TV_KA was 1.64 h⁻¹ in series [1] (total pamiparib, base model, 60 mg twice daily oral, glioblastoma patients); 1.58 h⁻¹ in series [1] (total pamiparib, final covariate model, 60 mg twice daily oral); 1.55 h⁻¹ in series [1] (unbound pamiparib, base model, 60 mg twice daily oral); 1.7 h⁻¹ in [1] (setting [19]). In addition, the “IIV of CL/F” value in [1] (total pamiparib, base model) is 53 (11) %; in series [1] (setting [14]), 50% and 50 (11) %; in series [1] (unbound pamiparib, base model), 54 (11) %; in series [1] (setting [19]), 52(11) %. Moreover, the “IIV of Ka” value is listed as 397 (18) % in series [1] (total pamiparib, base model); 410 (20) % in [1] (setting [14]); 612 (21) % in series [1] (unbound pamiparib, base model); 380 (20) % in series [1] (setting [19]). In addition, the “IIV of V/F” value is 53 (16) % in [1] (total pamiparib, base model); 41 (17) % in [1] (setting [14]); 50 (17) % in [1] (unbound pamiparib, base model); 41 (19) % in [1] (setting [19]). Besides, the TV_Fu stood at 0.042 in series [1] (total pamiparib, base model, fraction unbound in plasma); 0.041 in series [1] (total pamiparib, final covariate model, fraction unbound in plasma); 0.042 in series [1] (unbound pamiparib, base model); 0.042 in series [1] (setting [19]). Also, the “θ1 (Ka)” value in [1] (setting [12]) is 1.64 (42) h^−1; in [1] (total pamiparib, bootstrap mean (500 replicates)), 1.71 h⁻¹; in series [1] (setting [16]) it was 1.58 (42) h^−1 and 1.58 h^−1; in [1] (setting [17]), 1.55 (51) h^−1; in [1] (unbound pamiparib, bootstrap mean (500 replicates)), 1.86 h⁻¹; in [1] (setting [21]), 1.7 (44) h^−1 and 1.7 h^−1. Moreover, the “θ2 (V/F)” value in series [1] (setting [12]) was 44 (9.7) L; in [1] (setting [13]), 17 L; in series [1] (setting [16]), 15 (28) L and 15 L; in series [1] (setting [17]), 1017 (9.1) L; in series [1] (setting [18]) it was 441 L; in series [1] (setting [21]), 402 (28) L and 402 L. In addition, the “θ3 (CL/F)” value is 2.73 (8.0) L/h in series [1] (setting [12]) and 65.0 (8.2) L/h in series [1] (setting [17]). Also, the Fu_SD was determined as 0.11 in series [1] (setting [13]), 0.12 in series [1] (setting [15]), 0.11 in series [1] (setting [18]) and 0.11 in series [1] (setting [20]). In addition, the Ka_SD worked out at 1.6 in [1] (setting [13]), 1.7 in series [1] (setting [15]), 1.66 in series [1] (setting [18]) and 1.66 in series [1] (setting [20]). Further, the V/F_SD in series [1] (setting [13]) is reported as 0.35; in [1] (setting [15]) it was 0.39; in series [1] (setting [18]), 0.35; in series [1] (setting [20]) it was 0.39. Moreover, the “β1 (PCC)” value in [1] (setting [13]) stood at 0.0089; in series [1] (setting [18]), 0.0083. The “β2 (Age)” value is −0.017 in [1] (setting [13]) and −0.016 in [1] (setting [18]). Besides, the “substrate of efflux transporter ABCG2” value in series [2] is “not a substrate”. In addition, the “substrate of P-glycoprotein (P-gp) / ABCB1” value in series [3] is on record as “not a substrate”. Moreover, the 50% inhibitory concentration (IC50) in series [4] was ~1 nM and 1 nM. Besides, the “fecal excretion, share of total radioactivity” value in series [5] (pamiparib and its metabolites) is roughly 27%. Moreover, the “renal excretion, share of total radioactivity” value in series [5] (pamiparib and its metabolites) was “approximately 58%”. The “unchanged pamiparib as share of total radioactivity in plasma” value in [5] (patients with solid tumors) is on record as 67%. For the same compound, the “maximum tolerated dose in monotherapy” value in series [6] is reported as 60 mg BID. The T1/2 in series [6] (first in-human study BGB-290-AU-002) is 13 h. In addition, the intrinsic clearance result in [7] is reported as “low”. Moreover, the PARP trapping potency result in series [8] (compared with other PARP inhibitors) was “surpassing olaparib and rucaparib but slightly weaker than niraparib and much weaker than talazoparib”. Moreover, the LogP in series [9] is reported as 2.03.

`Cn1ncnc1[C@H]1c2n[nH]c(=O)c3cc(F)cc(c23)N[C@@H]1c1ccc(F)cc1` [talazoparib]: the “PARP trapping potency relative to olaparib” value in [8] is ~ 100 fold.

Regarding `O=C(c1cc(Cc2n[nH]c(=O)c3ccccc23)ccc1F)N1CCN(C(=O)C2CC2)CC1` [olaparib], the “dose for complete target engagement” value in series [10] (~5-fold of ED50) is reported as 15 mg/kg. The “dose for 50% target engagement (ED50)” value in series [10] is 3.17 mg/kg.

Take oxy-dehydro pamiparib [M3]: in series [5] (human plasma, urine, and feces), the metabolite abundance result is reported as “most abundant metabolite”.
